According to patent US10058540B2, “2-amino-5,5-difluoro-6-(fluoromethyl)-6-phenyl-3,4,5,6-tetrahydropyridines as BACE1 inhibitors” (H. Lundbeck A/S, priority 2014, dated 2018):

How the values were obtained:
[1] = target: T1, BACE1 (Homo sapiens (Human), UniProt P56817); assay: BACE1 binding assay (SPA-based, radioligand); conditions: pH 4.5, Ki=IC50/(1+L/Kd)
Protocol: The binding assay was performed as SPA-based assay using a biotinylated form of human BACE1 recombinantly expressed and subsequently purified from Freestyle HEK293 cells. The binding assay was run in a 50 mM sodium acetate buffer, pH 4.5 containing 50 mM NaCl and 0.03% Tween-20 in white clear bottom 384 plates (Corning #3653). 10 nM (final concentration) radioligand ([^3H]-N-((1S,2R)-1-benzyl-3-cyclopropylamino-2-hydroxy-propyl)-5-(methanesulfonyl-methyl-amino)-N-((R)-1-phenyl-ethyl)-isophthalamide) (TRQ11569 purchased from GE Healthcare) was mixed with test compound at a given concentration, 6 nM (final concentration) human BACE1 and 25 μg Streptavidin coated PVT core SPA beads (RPNQ0007, GE Healthcare Life Sciences) in a total volume of 40 μl. Several concentrations of each test compound were tested in the assay for IC50 determination. The plates were incubated for one hour at room temperature and counted in a Wallac Trilux counter. Total and non-specific binding were determined using buffer and 1 μM (final concentration) of the high affinity BACE1 reference inhibitor (S)-6-[3-chloro-5-(5-prop-1-ynyl-pyridin-3-yl)-thiophen-2-yl]-2-imino-3,6-dimethyl-tetrahydro-pyrimidin-4-one, respectively. For each test compound, a IC50 value (the concentration mediating 50% inhibition of the specific binding of the radioligand) was determined from concentration-response curve and used to calculate the Ki from the equation Ki=IC50/(1+L/Kd), where L and Kd are the final concentration of the radioligand used in the assay and the dissociation constant of the radioligand, respectively. The Kd of the radioligand was determined from saturation binding experiments.

[2] = target: T1, BACE1; assay: BACE1 efficacy assay (FRET-based, commercial BACE1 kit); assay type: biochemical; conditions: 10 μM test compound
Protocol: The efficacy assay was performed as a FRET-based assay using a commercially available BACE1 kit (Life Technologies, P2985). 2 μl test compound at 10 μM (final concentration) and 15 μl BACE1 enzyme from the kit (final concentration 3 nM) were preincubated for 15 minutes at room temperature before addition of 15 μl of substrate from the kit (250 nM final concentration) and incubated for additional 90 minutes at room temperature. The assay plate was subsequently read in a Pherastar (Ex540/Em590). The enzyme activity observed in presence of test compound were normalized to the enzyme activity observed in presence of buffer and 10 μM (final concentration) of the high affinity BACE1 reference inhibitor (S)-6-[3-Chloro-5-(5-prop-1-ynyl-pyridin-3-yl)-thiophen-2-yl]-2-imino-3,6-dimethyl-tetra-hydropyrimidin-4-one, respectively. The efficacy of the test compounds was evaluated at 10 μM (final concentration) and defined as the percent inhibition of the enzyme activity using the equation % inhibition=100%−normalized enzyme activity in percent.

[3] = test system: Aβ40; assay: Assessment of Aβ peptide levels in rat brain and plasma following BACE1 inhibition (Aβ40 ELISA); assay type: in vivo; conditions: 3 hours post dose, vs vehicle
Protocol: Assessment of Aβ Peptide Levels in Rat Brain and Plasma Following BACE1 Inhibition. Animals.
Young adult Male Sprague Dawley rats of approximately 250 g weight were purchased from Charles River and received 0-30 mg/kg of vehicle (10% HP betaCD+1M MeSO4, pH 2.5) or test compounds (dissolved in vehicle) only by oral gavage (p.o). The compounds are dosed at a volume of […]. Cohorts of 5-10 animals were established for each treatment condition.
At T=180 minutes after initial dosing the animals were stunned and decapitated with a guillotine. Trunk-blood was sampled in EDTA coated tubes after decapitation of the animal. The blood was centrifuged at 2200 G at 4° C. for 15 minutes and the plasma was collected and frozen at −80° C. The blood was aliquoted for Aβ ELISA and DMPK analysis. Immediately following sacrifice, the brain was extracted and split into 2 halves. The right hemibrains were snap frozen on dry ice and stored at −80° C. The left half was dissected; with the front forebrain taken for Aβ ELISA and the remainder used for DMPK analysis. These samples were also snap frozen on dry ice and stored at −80° C. until use for analysis.
The cortex samples were thawed slightly on wet ice before they were homogenized with a small volume dispersing instrument (T10 basic ULTRA-TURRAX®) which was set at speed 5 for approximately 5-7 sec. The tissue was processed in a 10 times volume of the weight, for example 100 mg of tissue was homogenized in 1000 μL of Homogenization buffer. Homogenization buffer: 50 ml Milli Q water+[…]+0.2% Diethylamin (DEA)+1 tablet of Complete Protease inhibitor cocktail+1 nM 4-(2-aminoethyl)benzenesulfonyl fluoride hydrochloride irreversible serine protease inhibitor (AEBSF).
After homogenization 450 μL aliquots of the samples are collected into a 1.5 ml Eppendorf tube and placed on wet ice, 0.5% NP-40 (50 ul) was added to all samples and then they were incubated on ice for 30 min. After which all samples were sonicated using an Ultrasonic homogenizer with 20 kHz homogeneous sound (SONOPLUS HD2070, Bandelin Electronic) 10 pulse set at 12-13% power to extract all the Aβ species. The samples were then centrifuged (Ole Dich 157 MPRF Micro centrifuge) at 20000 G for 20 minutes at 4° C. After centrifugation 285 μL of the supernatant was pipetted into 600 μL microtubes tubes and neutralized with 15 μL of 1M Tris-HCL buffer.
WAKO 294-62501 Human/Rat Abeta amyloid (40) kit was used for all ELISA analyses. 30 μL plasma samples or 30 μL of the cortex supernatants generated as described above were placed in 600 μL microtubes tubes on wet ice. To this 30 μL of 8M Urea (AppliChem A1049, 9025) are added to generate a 2-fold dilution. Both plasma and cortex supernatants are incubated on ice for 30 min. Standard rows were prepared from the standard peptide stock provided in the kit and standard diluent containing 1.6M Urea (200 μL 8M Urea+800 μL of standard diluent) and 0.8M Urea (400 μL 8M Urea+3600 μL Standard diluent). A serial 2-fold dilution of Aβ40 from 100 pmol/ml to 0 pmol/L was prepared for the assay.
After incubation with urea, all samples were further diluted by addition of 5 times standard diluent from the Kit. This was done by adding 240 μL Standard Diluent to 60 μL sample/urea mixture, which was then mixed well. 100 μL of each diluted sample was pipetted into designated wells of the ELISA plate in duplicates. The plate was then covered and incubated overnight at 4° C. The following day, the ELISA kit was brought to room temperature before use. The incubated plate was washed 5 times with the 20× washing solution diluted in Milli Q water. 100 μL HRP-conjugate was applied to each well, and the plate was covered and incubates at 4° C. for 1 hr. The wash was repeated again for 5 times. 100 μL 3,3′,5,5′-Tetramethylbenzidine (TMB) solution was applied to each well and the plate was covered and incubated in the dark at room temperature for 30 minutes. […]

[4] = test system: P-gp (MDR1); assay: MDCK-MDR1 assay (permeability / Pgp efflux); assay type: in vitro ADME; conditions: dog, Papp BA/Papp AB, Pgp substrate when ≥2
Protocol: The permeability of the test compounds was assessed in MDCK-MDR1 cells that were cultured to confluency (4-6 days) in a 96 transwell plate. Test compounds were diluted with the transport buffer (HBSS+1% BSA) to a concentration of 0.5 μM and applied to the apical or basolateral side of the cell monolayer. Permeation of the test compounds from A to B direction or B to A direction was determined in triplicate over a 60-minute incubation time at 37° C. and 5% CO2 with a relative humidity of 95%. Test compounds were quantified by LC-MS/MS analysis based on the peaks area ratios of analyte/IS in both the receiver and donor wells of the transwell plate.
The apparent permeability coefficient Papp (cm/s) was calculated using the equation: Papp=(dCr/dt)×Vr/(A×C0) Where dCr/dt is the cumulative concentration of compound in the receiver chamber as a function of time (μM/s); Vr is the solution volume in the receiver chamber (0.05 mL on the apical side; 0.25 mL on the basolateral side); A is the surface area for the transport, i.e. 0.0804 cm^2 for the area of the monolayer; C0 is the initial concentration in the donor chamber (μM).
Compounds are classified Pgp substrates when efflux ratio (Papp BA/Papp AB) is ≥2.

T1 sequence (P56817 46-501): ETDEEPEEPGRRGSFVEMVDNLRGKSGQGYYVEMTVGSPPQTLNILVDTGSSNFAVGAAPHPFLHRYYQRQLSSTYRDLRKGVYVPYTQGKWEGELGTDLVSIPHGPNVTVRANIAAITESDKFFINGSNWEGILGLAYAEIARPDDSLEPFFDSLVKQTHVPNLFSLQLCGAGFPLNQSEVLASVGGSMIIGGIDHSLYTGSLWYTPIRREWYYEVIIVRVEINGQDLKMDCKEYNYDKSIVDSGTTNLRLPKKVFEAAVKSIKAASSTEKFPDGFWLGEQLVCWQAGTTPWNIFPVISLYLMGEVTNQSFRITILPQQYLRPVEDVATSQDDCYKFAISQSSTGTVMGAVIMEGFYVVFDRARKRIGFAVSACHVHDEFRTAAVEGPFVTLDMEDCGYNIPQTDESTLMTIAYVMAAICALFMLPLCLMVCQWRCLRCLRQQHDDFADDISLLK

- Ki [1]: 9 nM
- inhibition at 10 µM [2]: 106%
- efflux ratio at 60 min, 0.5 μM [4]: 1.09
Structure (SMILES): COc1ccc(C(=O)Nc2cc(F)c(F)c([C@@]3(CF)N=C(N)CCC3(F)F)c2)nc1 [Compound 15, (S)-N-(3-(6-amino-3,3-difluoro-2-(fluoromethyl)-2,3,4,5-tetrahydropyridin-2-yl)-4,5-difluorophenyl)-5-methoxypicolinamide]
- Aβ40 reduction ([3]; rat brain, 10 mg/kg p.o.): 33%
- Aβ40 reduction ([3]; rat brain, 30 mg/kg p.o.): 43%
- Aβ40 reduction ([3]; rat plasma, 10 mg/kg p.o.): 34%
- Aβ40 reduction ([3]; rat plasma, 30 mg/kg p.o.): 34%
